Results reported in patent US10723724B2, “Compounds for treating degenerative diseases of central nervous system or brain tumor, and uses thereof” (SUN YAT-SEN UNIVERSITY, priority 2016, dated 2020).

Key:
Type in all cases: biochemical
MAPK10 (JNK3) = target: T1, MAPK10 (JNK3) (Homo sapiens, UniProt P53779); assay: Kinase screening service (Life Technologies): JNK3; conditions: average of duplicates
T1 construct: purchased Life Technologies Corporation (kinase screening service)
Experimental: (§1) The inhibitory effect of PT109 on SGK and INK was detected by the kinase screening commercialization service of Life Technologies Corporation.
(§2) The inhibitory effect of PT109 on other kinases including SGK and JNK was detected by the Kinase Screening Service of Life Technologies Corporation (The concentration of compound 9 was 10 μM, measurements were performed in duplicates, and the value was represented by an average) to investigate the selectivity of the compound for JNK and SGK1.

MAPK8 (JNK1) = target: T2, MAPK8 (JNK1) (Homo sapiens, UniProt P45983); assay: Kinase screening service (Life Technologies): JNK1
T2 construct: purchased Life Technologies Corporation (kinase screening service)
Experimental: as §1, §2

SGK (SGK1) [1] = target: T3, SGK (SGK1) (Homo sapiens, UniProt O00141); assay: Kinase screening service (Life Technologies): SGK1; conditions: SGK (SGK1)
T3 construct: IC50; other: SGK (SGK1); other: 10 μM, average of duplicates; SGK (SGK1)
Experimental: as §1, §2

SGK (SGK1) [2] = assay: Kinase screening service (Life Technologies): SGK1; conditions: SGK1 versus SGK2 and SGK3
Experimental: as §1, §2

AKT1 (PKB alpha) = target: T4, AKT1 (PKB alpha) (Homo sapiens, UniProt P31749); assay: Kinase screening service: AKT1; conditions: average of duplicates
T4 construct: purchased Life Technologies Corporation (Kinase Screening Service)
Experimental: as §2

AKT2 (PKB beta) = target: T5, AKT2 (PKB beta) (Homo sapiens, UniProt P31751); assay: Kinase screening service: AKT2; conditions: average of duplicates
T5 construct: purchased Life Technologies Corporation (Kinase Screening Service)
Experimental: as §2

CDK5/p25 = target: T6, CDK5/p25 (Homo sapiens, UniProt Q00535); assay: Kinase screening service: CDK5/p25; conditions: average of duplicates
T6 construct: purchased Life Technologies Corporation (Kinase Screening Service)
Experimental: as §2

CDK5/p35 = target: T7, CDK5/p35 (Homo sapiens, UniProt Q00535); assay: Kinase screening service: CDK5/p35; conditions: average of duplicates
T7 construct: purchased Life Technologies Corporation (Kinase Screening Service)
Experimental: as §2

CSNK1D (CK1 delta) = target: T8, CSNK1D (CK1 delta) (Homo sapiens, UniProt P48730); assay: Kinase screening service: CSNK1D; conditions: average of duplicates
T8 construct: purchased Life Technologies Corporation (Kinase Screening Service)
Experimental: as §2

CSNK1G1 (CK1 gamma 1) = target: T9, CSNK1G1 (CK1 gamma 1) (Homo sapiens, UniProt Q9HCP0); assay: Kinase screening service: CSNK1G1; conditions: average of duplicates
T9 construct: purchased Life Technologies Corporation (Kinase Screening Service)
Experimental: as §2

CSNK1G3 (CK1 gamma 3) = target: T10, CSNK1G3 (CK1 gamma 3) (Homo sapiens, UniProt Q9Y6M4); assay: Kinase screening service: CSNK1G3; conditions: average of duplicates
T10 construct: purchased Life Technologies Corporation (Kinase Screening Service)
Experimental: as §2

FGFR1 = target: T11, FGFR1 (Homo sapiens, UniProt P11362); assay: Kinase screening service: FGFR1; conditions: average of duplicates
T11 construct: purchased Life Technologies Corporation (Kinase Screening Service)
Experimental: as §2

GSK3B (GSK3 beta) = target: T12, GSK3B (GSK3 beta) (Homo sapiens, UniProt P49841); assay: Kinase screening service: GSK3B; conditions: average of duplicates
T12 construct: purchased Life Technologies Corporation (Kinase Screening Service)
Experimental: as §2

HCK = target: T13, HCK (Homo sapiens, UniProt P08631); assay: Kinase screening service: HCK; conditions: average of duplicates
T13 construct: purchased Life Technologies Corporation (Kinase Screening Service)
Experimental: as §2

HIPK1 (Myak) = target: T14, HIPK1 (Myak) (Homo sapiens, UniProt Q86Z02); assay: Kinase screening service: HIPK1; conditions: average of duplicates
T14 construct: purchased Life Technologies Corporation (Kinase Screening Service)
Experimental: as §2

LTK (TYK1) = target: T15, LTK (TYK1) (Homo sapiens, UniProt P29376); assay: Kinase screening service: LTK; conditions: average of duplicates
T15 construct: purchased Life Technologies Corporation (Kinase Screening Service)
Experimental: as §2

MAPK1 (ERK2) = target: T16, MAPK1 (ERK2) (Homo sapiens, UniProt P28482); assay: Kinase screening service: MAPK1; conditions: average of duplicates
T16 construct: purchased Life Technologies Corporation (Kinase Screening Service)
Experimental: as §2

NEK4 = target: T17, NEK4 (Homo sapiens, UniProt P51957); assay: Kinase screening service: NEK4; conditions: average of duplicates
T17 construct: purchased Life Technologies Corporation (Kinase Screening Service)
Experimental: as §2

NEK6 = target: T18, NEK6 (Homo sapiens, UniProt Q9HC98); assay: Kinase screening service: NEK6; conditions: average of duplicates
T18 construct: purchased Life Technologies Corporation (Kinase Screening Service)
Experimental: as §2

NTRK3 (TRKC) = target: T19, NTRK3 (TRKC) (Homo sapiens, UniProt Q16288); assay: Kinase screening service: NTRK3; conditions: average of duplicates
T19 construct: purchased Life Technologies Corporation (Kinase Screening Service)
Experimental: as §2

PAK6 = target: T20, PAK6 (Homo sapiens, UniProt Q9NQU5); assay: Kinase screening service: PAK6; conditions: average of duplicates
T20 construct: purchased Life Technologies Corporation (Kinase Screening Service)
Experimental: as §2

PDK1 Direct = target: T21, PDK1 Direct (Homo sapiens, UniProt O15530); assay: Kinase screening service: PDK1 Direct; conditions: average of duplicates
T21 construct: purchased Life Technologies Corporation (Kinase Screening Service)
Experimental: as §2

PRKCB1 (PKC beta I) = target: T22, PRKCB1 (PKC beta I) (Homo sapiens, UniProt P05771); assay: Kinase screening service: PRKCB1; conditions: average of duplicates
T22 construct: purchased Life Technologies Corporation (Kinase Screening Service)
Experimental: as §2

PTK2B (FAK2) = target: T23, PTK2B (FAK2) (Homo sapiens, UniProt Q14289); assay: Kinase screening service: PTK2B; conditions: average of duplicates
T23 construct: purchased Life Technologies Corporation (Kinase Screening Service)
Experimental: as §2

RPS6KA3 (RSK2) = target: T24, RPS6KA3 (RSK2) (Homo sapiens, UniProt P51812); assay: Kinase screening service: RPS6KA3; conditions: average of duplicates
T24 construct: purchased Life Technologies Corporation (Kinase Screening Service)
Experimental: as §2

SRMS (Srm) = target: T25, SRMS (Srm) (Homo sapiens, UniProt Q9H3Y6); assay: Kinase screening service: SRMS; conditions: average of duplicates
T25 construct: purchased Life Technologies Corporation (Kinase Screening Service)
Experimental: as §2

TAOK2 (TAO1) = target: T26, TAOK2 (TAO1) (Homo sapiens, UniProt Q9UL54); assay: Kinase screening service: TAOK2; conditions: average of duplicates
T26 construct: purchased Life Technologies Corporation (Kinase Screening Service)
Experimental: as §2

CHUK (IKK alpha) = target: T27, CHUK (IKK alpha) (Homo sapiens, UniProt O15111); assay: Kinase screening service: CHUK; conditions: average of duplicates
T27 construct: purchased Life Technologies Corporation (Kinase Screening Service)
Experimental: as §2

PI4KB (PI4K beta) = target: T28, PI4KB (PI4K beta) (Homo sapiens, UniProt Q9UBF8); assay: Kinase screening service: PI4KB; conditions: average of duplicates
T28 construct: purchased Life Technologies Corporation (Kinase Screening Service)
Experimental: as §2

PIK3C3 (hVPS34) = target: T29, PIK3C3 (hVPS34) (Homo sapiens, UniProt Q8NEB9); assay: Kinase screening service: PIK3C3; conditions: average of duplicates
T29 construct: purchased Life Technologies Corporation (Kinase Screening Service)
Experimental: as §2

[3] = target: T30, MAP2K1 (MEK1) S218D S222D (Homo sapiens, UniProt Q02750, S218D/S222D); assay: Kinase screening service: MAP2K1 S218D S222D; conditions: average of duplicates
T30 construct: purchased Life Technologies Corporation (Kinase Screening Service)
Experimental: as §2

MAP3K5 (ASK1) = target: T31, MAP3K5 (ASK1) (Homo sapiens, UniProt Q99683); assay: Kinase screening service: MAP3K5; conditions: average of duplicates
T31 construct: purchased Life Technologies Corporation (Kinase Screening Service)
Experimental: as §2

MYO3B (MYO3 beta) = target: T32, MYO3B (MYO3 beta) (Homo sapiens, UniProt Q8WXR4); assay: Kinase screening service: MYO3B; conditions: average of duplicates
T32 construct: purchased Life Technologies Corporation (Kinase Screening Service)
Experimental: as §2

PLK4 = target: T33, PLK4 (Homo sapiens, UniProt O00444); assay: Kinase screening service: PLK4; conditions: average of duplicates
T33 construct: purchased Life Technologies Corporation (Kinase Screening Service)
Experimental: as §2

TEC = target: T34, TEC (Homo sapiens, UniProt P42680); assay: Kinase screening service: TEC; conditions: average of duplicates
T34 construct: purchased Life Technologies Corporation (Kinase Screening Service)
Experimental: as §2

[4] = system: other kinases including SGK and JNK; assay: Kinase selectivity of PT109 (whole panel); conditions: 10 μM, kinase panel of Table 2
Experimental: as §2

T3 sequence (O00141 whole entry S422D, form open): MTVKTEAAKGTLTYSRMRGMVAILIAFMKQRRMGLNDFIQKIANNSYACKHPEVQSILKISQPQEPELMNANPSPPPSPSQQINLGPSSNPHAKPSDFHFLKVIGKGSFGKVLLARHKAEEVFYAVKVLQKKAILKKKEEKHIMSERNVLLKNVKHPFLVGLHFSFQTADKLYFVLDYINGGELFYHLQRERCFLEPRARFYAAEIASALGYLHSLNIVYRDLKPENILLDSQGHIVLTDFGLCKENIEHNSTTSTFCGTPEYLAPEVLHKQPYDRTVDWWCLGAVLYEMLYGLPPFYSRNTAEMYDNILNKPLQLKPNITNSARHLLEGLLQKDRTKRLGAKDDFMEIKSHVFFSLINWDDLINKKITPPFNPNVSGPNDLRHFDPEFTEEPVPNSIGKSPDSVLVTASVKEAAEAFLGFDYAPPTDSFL
T2 sequence (P45983 whole entry): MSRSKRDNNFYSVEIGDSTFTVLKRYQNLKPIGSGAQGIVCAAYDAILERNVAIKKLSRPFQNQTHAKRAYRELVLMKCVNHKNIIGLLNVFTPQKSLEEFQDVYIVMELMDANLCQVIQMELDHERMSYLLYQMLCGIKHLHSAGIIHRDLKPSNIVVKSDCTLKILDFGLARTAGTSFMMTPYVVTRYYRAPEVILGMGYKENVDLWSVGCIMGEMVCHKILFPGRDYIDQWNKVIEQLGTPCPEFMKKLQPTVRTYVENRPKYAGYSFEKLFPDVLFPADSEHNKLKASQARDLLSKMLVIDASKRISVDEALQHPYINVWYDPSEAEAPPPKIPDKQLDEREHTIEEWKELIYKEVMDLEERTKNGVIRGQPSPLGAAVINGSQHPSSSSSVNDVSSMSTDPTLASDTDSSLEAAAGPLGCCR
T34 sequence (P42680 whole entry): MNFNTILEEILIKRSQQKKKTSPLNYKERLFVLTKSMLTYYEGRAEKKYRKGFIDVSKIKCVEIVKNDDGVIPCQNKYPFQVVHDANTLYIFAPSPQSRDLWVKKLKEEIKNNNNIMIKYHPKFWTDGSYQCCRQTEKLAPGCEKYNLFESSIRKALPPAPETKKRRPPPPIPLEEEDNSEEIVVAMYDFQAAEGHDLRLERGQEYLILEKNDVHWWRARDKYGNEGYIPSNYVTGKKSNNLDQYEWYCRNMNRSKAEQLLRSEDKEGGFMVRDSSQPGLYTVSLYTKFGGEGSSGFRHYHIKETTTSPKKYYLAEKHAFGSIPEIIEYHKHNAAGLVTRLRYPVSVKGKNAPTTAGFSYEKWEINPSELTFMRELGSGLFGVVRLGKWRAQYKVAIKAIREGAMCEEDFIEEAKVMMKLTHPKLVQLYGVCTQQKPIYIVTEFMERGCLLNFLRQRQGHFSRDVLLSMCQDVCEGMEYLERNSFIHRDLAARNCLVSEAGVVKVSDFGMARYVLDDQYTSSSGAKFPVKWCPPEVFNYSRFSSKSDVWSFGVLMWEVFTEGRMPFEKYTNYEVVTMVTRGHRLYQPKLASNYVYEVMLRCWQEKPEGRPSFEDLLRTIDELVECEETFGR
T10 sequence (Q9Y6M4 whole entry): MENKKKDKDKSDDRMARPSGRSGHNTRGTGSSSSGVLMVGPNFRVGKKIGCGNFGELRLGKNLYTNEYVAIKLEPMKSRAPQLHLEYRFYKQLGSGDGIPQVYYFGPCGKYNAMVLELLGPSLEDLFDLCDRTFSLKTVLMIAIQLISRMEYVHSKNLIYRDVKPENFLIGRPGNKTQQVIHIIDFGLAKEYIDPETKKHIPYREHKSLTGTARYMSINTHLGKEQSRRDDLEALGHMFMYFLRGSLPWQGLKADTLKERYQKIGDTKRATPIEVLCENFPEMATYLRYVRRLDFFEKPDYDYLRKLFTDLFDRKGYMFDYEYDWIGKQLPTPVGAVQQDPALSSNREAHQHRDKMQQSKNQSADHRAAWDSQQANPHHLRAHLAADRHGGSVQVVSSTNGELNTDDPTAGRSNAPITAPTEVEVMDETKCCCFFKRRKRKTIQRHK
T13 sequence (P08631 whole entry): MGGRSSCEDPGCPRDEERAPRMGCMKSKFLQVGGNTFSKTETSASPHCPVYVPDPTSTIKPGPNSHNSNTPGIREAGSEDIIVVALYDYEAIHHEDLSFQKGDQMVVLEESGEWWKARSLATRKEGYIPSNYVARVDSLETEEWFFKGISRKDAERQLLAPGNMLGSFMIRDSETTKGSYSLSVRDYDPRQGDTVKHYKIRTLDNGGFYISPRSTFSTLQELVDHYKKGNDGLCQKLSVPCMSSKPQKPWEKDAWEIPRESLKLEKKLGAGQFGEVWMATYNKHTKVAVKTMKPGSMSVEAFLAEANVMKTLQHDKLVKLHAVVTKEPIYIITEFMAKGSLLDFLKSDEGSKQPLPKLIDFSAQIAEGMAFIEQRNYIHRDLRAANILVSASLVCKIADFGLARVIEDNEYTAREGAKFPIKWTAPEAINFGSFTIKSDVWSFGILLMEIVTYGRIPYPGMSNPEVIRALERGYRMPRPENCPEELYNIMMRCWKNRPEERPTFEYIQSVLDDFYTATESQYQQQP
T4 sequence (P31749 whole entry): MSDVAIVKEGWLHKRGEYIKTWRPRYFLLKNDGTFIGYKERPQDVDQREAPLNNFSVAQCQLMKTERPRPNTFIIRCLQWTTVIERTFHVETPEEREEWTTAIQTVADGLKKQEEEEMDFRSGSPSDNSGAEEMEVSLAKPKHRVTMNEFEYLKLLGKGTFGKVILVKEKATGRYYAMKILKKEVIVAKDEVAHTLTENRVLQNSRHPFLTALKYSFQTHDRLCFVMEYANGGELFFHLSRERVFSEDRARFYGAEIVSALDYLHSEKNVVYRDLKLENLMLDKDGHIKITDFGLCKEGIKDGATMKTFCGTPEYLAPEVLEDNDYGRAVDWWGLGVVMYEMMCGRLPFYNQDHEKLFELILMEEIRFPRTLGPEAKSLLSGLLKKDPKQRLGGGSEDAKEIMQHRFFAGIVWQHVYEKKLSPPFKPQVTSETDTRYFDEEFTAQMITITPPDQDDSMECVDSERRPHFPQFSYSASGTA
T11 sequence (P11362 22-822): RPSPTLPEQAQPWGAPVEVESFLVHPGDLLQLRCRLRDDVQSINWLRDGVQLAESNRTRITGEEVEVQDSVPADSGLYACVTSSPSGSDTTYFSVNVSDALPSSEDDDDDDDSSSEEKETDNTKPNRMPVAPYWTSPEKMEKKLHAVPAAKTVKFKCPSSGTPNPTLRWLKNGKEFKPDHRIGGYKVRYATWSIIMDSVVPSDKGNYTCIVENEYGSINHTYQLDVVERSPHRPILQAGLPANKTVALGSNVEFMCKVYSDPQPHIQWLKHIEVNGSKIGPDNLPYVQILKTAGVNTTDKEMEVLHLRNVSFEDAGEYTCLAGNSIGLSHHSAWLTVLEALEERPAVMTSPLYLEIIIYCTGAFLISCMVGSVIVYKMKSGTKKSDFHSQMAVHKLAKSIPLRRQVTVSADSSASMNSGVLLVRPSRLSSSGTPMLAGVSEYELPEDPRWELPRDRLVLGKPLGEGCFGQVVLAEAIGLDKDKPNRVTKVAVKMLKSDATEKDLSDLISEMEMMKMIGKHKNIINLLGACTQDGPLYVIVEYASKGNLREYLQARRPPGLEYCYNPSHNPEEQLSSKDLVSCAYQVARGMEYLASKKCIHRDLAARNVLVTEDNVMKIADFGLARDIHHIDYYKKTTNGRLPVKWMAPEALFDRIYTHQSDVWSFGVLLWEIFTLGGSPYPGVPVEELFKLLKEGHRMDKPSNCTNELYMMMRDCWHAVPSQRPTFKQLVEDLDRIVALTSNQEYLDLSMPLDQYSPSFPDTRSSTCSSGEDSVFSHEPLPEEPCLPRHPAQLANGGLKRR
T21 sequence (O15530 whole entry): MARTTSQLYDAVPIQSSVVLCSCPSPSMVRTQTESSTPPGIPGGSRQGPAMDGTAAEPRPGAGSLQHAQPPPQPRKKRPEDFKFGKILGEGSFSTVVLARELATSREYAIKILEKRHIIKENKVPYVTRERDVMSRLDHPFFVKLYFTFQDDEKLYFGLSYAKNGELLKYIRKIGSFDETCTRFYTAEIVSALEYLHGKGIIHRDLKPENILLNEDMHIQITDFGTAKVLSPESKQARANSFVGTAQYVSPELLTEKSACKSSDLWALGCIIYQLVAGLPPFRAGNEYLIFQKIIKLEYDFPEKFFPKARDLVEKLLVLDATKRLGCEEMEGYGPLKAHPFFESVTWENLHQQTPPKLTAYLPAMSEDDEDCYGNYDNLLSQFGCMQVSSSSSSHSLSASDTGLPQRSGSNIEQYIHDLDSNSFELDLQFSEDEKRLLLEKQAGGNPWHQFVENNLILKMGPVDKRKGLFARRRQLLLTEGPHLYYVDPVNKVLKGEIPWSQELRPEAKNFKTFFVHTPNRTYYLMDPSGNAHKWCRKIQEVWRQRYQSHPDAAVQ
T9 sequence (Q9HCP0 whole entry): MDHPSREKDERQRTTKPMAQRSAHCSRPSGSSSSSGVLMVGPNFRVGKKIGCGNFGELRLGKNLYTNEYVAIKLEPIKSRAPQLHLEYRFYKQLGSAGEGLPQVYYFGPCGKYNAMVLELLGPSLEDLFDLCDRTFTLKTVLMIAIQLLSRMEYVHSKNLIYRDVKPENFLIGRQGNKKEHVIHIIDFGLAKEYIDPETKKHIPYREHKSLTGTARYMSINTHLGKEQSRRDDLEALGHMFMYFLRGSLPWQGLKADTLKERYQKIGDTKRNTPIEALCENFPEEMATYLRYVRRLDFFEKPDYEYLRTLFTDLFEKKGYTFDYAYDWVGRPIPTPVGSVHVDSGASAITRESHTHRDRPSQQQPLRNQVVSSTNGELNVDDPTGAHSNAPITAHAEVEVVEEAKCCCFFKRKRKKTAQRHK

SMILES: O=C(CCCCC1CCSS1)NC1CCC(Nc2cccc3cnccc23)CC1 (centres unmarked) [PT109, 5-(1,2-dithiolan-3-yl)-N-(4-(isoquinolin-5-ylamino)cyclohexyl) pentanamide]
- inhibition at 10 µM (MAPK10 (JNK3)): 90%
- IC50 (MAPK8 (JNK1)): 143 nM
- inhibition at 10 µM (MAPK8 (JNK1); 10 μM, average of duplicates): 104%
- % Inhibition (SGK (SGK1) [1]; 10 μM, average of duplicates): 91%
- IC50 (SGK (SGK1) [1]): 1340 nM
- specificity for SGK1 (SGK (SGK1) [2]): better specificity for SGK1
- inhibition at 10 µM (AKT1 (PKB alpha)): 22%
- inhibition at 10 µM (AKT2 (PKB beta)): 30%
- inhibition at 10 µM (CDK5/p25): 18%
- inhibition at 10 µM (CDK5/p35): 26%
- inhibition at 10 µM (CSNK1D (CK1 delta)): 6%
- inhibition at 10 µM (CSNK1G1 (CK1 gamma 1)): 9%
- inhibition at 10 µM (CSNK1G3 (CK1 gamma 3)): 24%
- inhibition at 10 µM (FGFR1): -3%
- inhibition at 10 µM (GSK3B (GSK3 beta)): 61%
- inhibition at 10 µM (HCK): 9%
- inhibition at 10 µM (HIPK1 (Myak)): 0%
- inhibition at 10 µM (LTK (TYK1)): 40%
- inhibition at 10 µM (MAPK1 (ERK2)): 4%
- inhibition at 10 µM (NEK4): 3%
- inhibition at 10 µM (NEK6): 3%
- inhibition at 10 µM (NTRK3 (TRKC)): 28%
- inhibition at 10 µM (PAK6): -16%
- inhibition at 10 µM (PDK1 Direct): 51%
- inhibition at 10 µM (PRKCB1 (PKC beta I)): -10%
- inhibition at 10 µM (PTK2B (FAK2)): 8%
- inhibition at 10 µM (RPS6KA3 (RSK2)): 54%
- inhibition at 10 µM (SRMS (Srm)): 20%
- inhibition at 10 µM (TAOK2 (TAO1)): -6%
- inhibition at 10 µM (CHUK (IKK alpha)): 16%
- inhibition at 10 µM (PI4KB (PI4K beta)): 39%
- inhibition at 10 µM (PIK3C3 (hVPS34)): 11%
- inhibition at 10 µM [3]: 13%
- inhibition at 10 µM (MAP3K5 (ASK1)): 9%
- inhibition at 10 µM (MYO3B (MYO3 beta)): 43%
- inhibition at 10 µM (PLK4): 35%
- inhibition at 10 µM (TEC): 26%
- specificity for SGK1 and JNK [4]: better specificity for SGK1 and JNK
